Marks after values point to notes of the source that are not given here.
Test system: male Sprague-Dawley rats
Test: EEG/EMG/Tcore/LMA telemetry sleep study 1 (SB-334867 vs ZOL)
Assay type: in vivo, rat
Protocol: All rodent electroencephalograph (EEG) studies were performed at SRI International. Three groups of eight male Sprague-Dawley rats (300±25 g; Charles River, Wilmington, MA) were implanted with chronic recording devices (F40-EET, Data Sciences Inc., St Paul, MN) for continuous recordings of EEG, electromyograph (EMG), core body temperature (Tcore), and LMA via telemetry as previously described. Data recording and scoring were performed as previously reported (see also Supplemental Material and Methods). The EEG and EMG data were scored in 10 sec epochs for waking (W), rapid eye movement sleep (REM), and non-REM sleep (NR). Tcore and LMA (counts per minute) were analyzed as hourly means. Data from the EEG studies are reported in hourly means such that the hourly time ZT1 refers to the hour between time points ZT0 and ZT1.
For each of the three separate studies, a repeated measures counter-balanced design was employed in which each rat received five separate dosings. […] All dosings were administered ip in a volume of 2 ml/kg. A minimum of 3 d elapsed between doses. Dosing occurred during the middle of the rats’ normal active period at the start of ZT19 and was typically completed within 10 min. Animals were continuously recorded for 6 h prior to dosing and for 18 h following dosing.

Cc1nc2ccc(NC(=O)Nc3ccnc4cccnc34)cc2o1.Cl [SB-334867, 1-(2-methylbenzoxazol-6-yl)-3-[1], [5]naphthyridin-4-yl-urea hydrochloride]
cumulative NR (in words) (3 and 30 mg/kg ip, first 4 and 6 h periods): increased cumulative NR | NR bout duration (6 h Average, 3 mg/kg ip): 1.17 ± 0.12 ^+ | REM bout duration (6 h Average, 3 mg/kg ip): 1.28 ± 0.14^+ | W bout duration (6 h Average, 3 mg/kg ip): 4.29 ± 0.34 | NR bout duration (6 h Average, 10 mg/kg ip): 1.00 ±0.12 ^+ | REM bout duration (6 h Average, 10 mg/kg ip): 1.24 ±0.14^+ | W bout duration (6 h Average, 10 mg/kg ip): 4.19 ±0.30 | NR bout duration (6 h Average, 30 mg/kg ip): 1.18 ± 0.12 ^+ | REM bout duration (6 h Average, 30 mg/kg ip): 1.05 ± 0.08^+ | W bout duration (6 h Average, 30 mg/kg ip): 3.87 ± 0.21 | Number of NR bouts (6 h Total, 3 mg/kg ip): 72.88 ± 5.37 | Number of REM bouts (6 h Total, 3 mg/kg ip): 15.25 ±2.54 | Number of W bouts (6 h Total, 3 mg/kg ip): 61.5 ±5.45 | Number of NR bouts (6 h Total, 10 mg/kg ip): 76.13 ± 4.99 | Number of REM bouts (6 h Total, 10 mg/kg ip): 14.38 ± 1.55 | Number of W bouts (6 h Total, 10 mg/kg ip): 64.13 ± 3.89 | Number of NR bouts (6 h Total, 30 mg/kg ip): 71.38 ± 2.20 | Number of REM bouts (6 h Total, 30 mg/kg ip): 19.25 ± 1.50*^+ | Number of W bouts (6 h Total, 30 mg/kg ip): 65.38 ± 3.54 | NR during the subsequent light period (in words) (ZT3, 10 and 30 mg/kg ip, vs vehicle): NR decreased | NR bout duration (ZT19, 3 mg/kg ip): 1.02 ± 0.14^+ | Number of NR bouts (ZT19, 3 mg/kg ip): 4.63 ± 2.07 | Number of REM bouts (ZT19, 3 mg/kg ip): 0.50 ± 0.33 | Number of W bouts (ZT19, 3 mg/kg ip): 2.88 ± 0.93 | REM bout duration (ZT19, 3 mg/kg ip): 1.21 ± 0.38^+ | W bout duration (ZT19, 3 mg/kg ip): 31.21 ± 8.79 | NR bout duration (ZT19, 10 mg/kg ip): 1.56 ± 0.59 | Number of NR bouts (ZT19, 10 mg/kg ip): 7.88 ± 2.52 | Number of REM bouts (ZT19, 10 mg/kg ip): 1.00 ± .050 | Number of W bouts (ZT19, 10 mg/kg ip): 6.25 ± 1.78 | REM bout duration (ZT19, 10 mg/kg ip): 0.95 ± 0.09 | W bout duration (ZT19, 10 mg/kg ip): 16.83 ± 6.40 | NR bout duration (ZT19, 30 mg/kg ip): 1.29 ± 0.24 | Number of NR bouts (ZT19, 30 mg/kg ip): 7.75 ± 1.93 | Number of REM bouts (ZT19, 30 mg/kg ip): 1.50 ± 0.46 | Number of W bouts (ZT19, 30 mg/kg ip): 5.75 ± 1.10 | REM bout duration (ZT19, 30 mg/kg ip): 1.04 ± 0.27 | W bout duration (ZT19, 30 mg/kg ip): 13.73 ± 6.71 | NR bout duration (ZT20, 3 mg/kg ip): 1.29 ± 0.15^+ | Number of NR bouts (ZT20, 3 mg/kg ip): 16.25 ± 2.43 | Number of REM bouts (ZT20, 3 mg/kg ip): 4.38 ± 1.21 | Number of W bouts (ZT20, 3 mg/kg ip): 12.25 ± 2.06 | REM bout duration (ZT20, 3 mg/kg ip): 1.34 ± 0.16^+ | W bout duration (ZT20, 3 mg/kg ip): 3.39 ± 0.78 | NR bout duration (ZT20, 10 mg/kg ip): 1.14 ± 0.12^+ | Number of NR bouts (ZT20, 10 mg/kg ip): 17.50 ± 3.34 | Number of REM bouts (ZT20, 10 mg/kg ip): 4.38 ± 1.19 | Number of W bouts (ZT20, 10 mg/kg ip): 13.88 ± 2.94 | REM bout duration (ZT20, 10 mg/kg ip): 1.16 ± 0.14^+ | W bout duration (ZT20, 10 mg/kg ip): 9.58 ± 7.23 | NR bout duration (ZT20, 30 mg/kg ip): 1.41 ± 0.26^+ | Number of NR bouts (ZT20, 30 mg/kg ip): 13.75 ± 1.79 | Number of REM bouts (ZT20, 30 mg/kg ip): 3.88 ± 0.99 | Number of W bouts (ZT20, 30 mg/kg ip): 12.63 ± 1.53 | REM bout duration (ZT20, 30 mg/kg ip): 1.27 ± 0.14^+ | W bout duration (ZT20, 30 mg/kg ip): 3.30 ± 0.88 | NR bout duration (ZT21, 3 mg/kg ip): 1.45 ± 0.28 | Number of NR bouts (ZT21, 3 mg/kg ip): 20.75 ± 2.40 | Number of REM bouts (ZT21, 3 mg/kg ip): 5.63 ± 0.65 | Number of W bouts (ZT21, 3 mg/kg ip): 16.38 ± 1.96 | REM bout duration (ZT21, 3 mg/kg ip): 1.28 ± 0.18 | W bout duration (ZT21, 3 mg/kg ip): 1.44 ± 0.20 | NR bout duration (ZT21, 10 mg/kg ip): 1.13 ± 0.25 | Number of NR bouts (ZT21, 10 mg/kg ip): 18.13 ± 2.03 | Number of REM bouts (ZT21, 10 mg/kg ip): 3.75 ± 0.82 | Number of W bouts (ZT21, 10 mg/kg ip): 14.88 ± 1.83 | REM bout duration (ZT21, 10 mg/kg ip): 1.38 ± 0.21 | W bout duration (ZT21, 10 mg/kg ip): 2.72 ± 0.50 | NR bout duration (ZT21, 30 mg/kg ip): 1.27 ± 0.16 | Number of NR bouts (ZT21, 30 mg/kg ip): 16.75 ± 2.30 | Number of REM bouts (ZT21, 30 mg/kg ip): 5.63 ± 1.10 | Number of W bouts (ZT21, 30 mg/kg ip): 13.00 ± 1.90 | REM bout duration (ZT21, 30 mg/kg ip): 1.04 ± 0.11 | W bout duration (ZT21, 30 mg/kg ip): 2.98 ± 0.68 | NR bout duration (in words) (ZT21 at 30 mg/kg and ZT24 at 3 mg/kg): increased NR bout duration | NR bout duration (ZT22, 3 mg/kg ip): 0.82 ± 0.13 | Number of NR bouts (ZT22, 3 mg/kg ip): 12.75 ± 2.22 | Number of REM bouts (ZT22, 3 mg/kg ip): 2.75 ± 1.10 | Number of W bouts (ZT22, 3 mg/kg ip): 13.38 ± 2.85 | REM bout duration (ZT22, 3 mg/kg ip): 1.10 ± 0.27 | W bout duration (ZT22, 3 mg/kg ip): 6.85 ± 3.36 | NR bout duration (ZT22, 10 mg/kg ip): 0.86 ± 0.10 | Number of NR bouts (ZT22, 10 mg/kg ip): 17.13 ± 2.47 | Number of REM bouts (ZT22, 10 mg/kg ip): 3.13 ± 0.67 | Number of W bouts (ZT22, 10 mg/kg ip): 14.13 ± 1.81 | REM bout duration (ZT22, 10 mg/kg ip): 1.16 ± 0.25 | W bout duration (ZT22, 10 mg/kg ip): 3.15 ± 0.53 | NR bout duration (ZT22, 30 mg/kg ip): 1.19 ± 0.23 | Number of NR bouts (ZT22, 30 mg/kg ip): 13.13 ± 2.17 | Number of REM bouts (ZT22, 30 mg/kg ip): 3.38 ± 1.03 | Number of W bouts (ZT22, 30 mg/kg ip): 16.00 ± 2.00 | REM bout duration (ZT22, 30 mg/kg ip): 1.25 ± 0.22 | W bout duration (ZT22, 30 mg/kg ip): 2.75 ± 0.54 | NR bout duration (ZT23, 3 mg/kg ip): 0.77 ± 0.08 | Number of NR bouts (ZT23, 3 mg/kg ip): 10.50 ± 2.01 | Number of REM bouts (ZT23, 3 mg/kg ip): 1.00 ± 0.42 | Number of W bouts (ZT23, 3 mg/kg ip): 9.00 ± 1.66 | REM bout duration (ZT23, 3 mg/kg ip): 0.63 ± 0.29 | W bout duration (ZT23, 3 mg/kg ip): 6.72 ± 1.58 | NR bout duration (ZT23, 10 mg/kg ip): 0.77 ± 0.13 | Number of NR bouts (ZT23, 10 mg/kg ip): 9.88 ± 1.88 | Number of REM bouts (ZT23, 10 mg/kg ip): 1.50 ± 0.63 | Number of W bouts (ZT23, 10 mg/kg ip): 8.88 ± 1.59 | REM bout duration (ZT23, 10 mg/kg ip): 1.12 ± 0.34 | W bout duration (ZT23, 10 mg/kg ip): 11.56 ± 6.94 | NR bout duration (ZT23, 30 mg/kg ip): 0.80 ± 0.14 | Number of NR bouts (ZT23, 30 mg/kg ip): 8.88 ± 2.17 | Number of REM bouts (ZT23, 30 mg/kg ip): 2.75 ± 1.08 | Number of W bouts (ZT23, 30 mg/kg ip): 8.38 ± 2.00 | REM bout duration (ZT23, 30 mg/kg ip): 0.75 ± 0.17 | W bout duration (ZT23, 30 mg/kg ip): 12.52 ± 6.85 | NR bout duration (ZT24, 3 mg/kg ip): 1.40 ± 0.24 | Number of NR bouts (ZT24, 3 mg/kg ip): 7.63 ± 2.02 | Number of REM bouts (ZT24, 3 mg/kg ip): 1.00 ± 0.42 | Number of W bouts (ZT24, 3 mg/kg ip): 7.00 ± 1.60 | REM bout duration (ZT24, 3 mg/kg ip): 1.13 ± 0.39 | W bout duration (ZT24, 3 mg/kg ip): 14.70 ± 7.18 | NR bout duration (ZT24, 10 mg/kg ip): 0.99 ± 0.18 | Number of NR bouts (ZT24, 10 mg/kg ip): 5.38 ± 1.45 | Number of REM bouts (ZT24, 10 mg/kg ip): 0.63 ± 0.26 | Number of W bouts (ZT24, 10 mg/kg ip): 5.25 ± 1.22 | REM bout duration (ZT24, 10 mg/kg ip): 0.48 ± 0.16^+ | W bout duration (ZT24, 10 mg/kg ip): 16.01 ± 6.44 | NR bout duration (ZT24, 30 mg/kg ip): 1.05 ± 0.12 | Number of NR bouts (ZT24, 30 mg/kg ip): 10.88 ± 1.90 | Number of REM bouts (ZT24, 30 mg/kg ip): 2.13 ± 0.55 | Number of W bouts (ZT24, 30 mg/kg ip): 8.63 ±1.29 | REM bout duration (ZT24, 30 mg/kg ip): 0.81 ± 0.12 | W bout duration (ZT24, 30 mg/kg ip): 5.39 ± 6.44 | Tcore (in words) (high concentration tested, across 6 h): decreased Tcore
